Results as given in US5240957A, “Oxysalicylamido derivatives” (Astra Lakemedel Akteibolag, priority 1984, dated 1993).

Assays:
apomorphine syndrome = conditions: claimed in prior art; cited from earlier work
dopamine receptors = molecular target: T1, dopamine receptors (Rattus norvegicus, UniProt P61169); assay: Receptor binding assay: in vitro block of 3H-spiperone binding, rat striatal membranes; parameters: species or system Male Sprague-Dawley rats; conditions: rat striatum; 3H-spiperone 0.4 nM; 10 minutes at 37° C.
T1 construct: The striata were dissected, pooled and homogenized in 50 mM Tris-HCl buffer (pH 7.6); from tissue; host or cells: striata of male Sprague-Dawley rats, membrane fraction
T1 sequence (P61169 whole entry): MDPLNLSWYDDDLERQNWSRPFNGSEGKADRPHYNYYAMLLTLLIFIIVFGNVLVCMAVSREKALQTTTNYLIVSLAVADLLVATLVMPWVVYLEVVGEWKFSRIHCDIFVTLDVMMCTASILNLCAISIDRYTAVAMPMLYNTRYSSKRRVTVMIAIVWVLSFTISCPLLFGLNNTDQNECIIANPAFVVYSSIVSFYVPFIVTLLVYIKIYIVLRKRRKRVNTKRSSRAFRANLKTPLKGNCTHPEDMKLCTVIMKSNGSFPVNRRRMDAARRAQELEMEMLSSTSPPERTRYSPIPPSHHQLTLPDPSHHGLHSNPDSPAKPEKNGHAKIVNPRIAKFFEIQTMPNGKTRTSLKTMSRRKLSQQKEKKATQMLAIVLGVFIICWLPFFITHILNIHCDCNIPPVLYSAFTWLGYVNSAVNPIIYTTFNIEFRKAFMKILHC
Experimental: The assays have been carried out using a cell harvester equipment. The incubations were made in quadruplicate, each well containing membrane suspension (2.5 mg/0.5 ml), ^3 H-spiperone (0.4 nM) and the test compound in a final volume of 0.5 ml. After incubation for 10 minutes at 37° C., the contents of the wells were rapidly filtered and washed on Whatman GF/B filters using the Cell harvester. The specific binding was defined as the difference of ligand bound in the […] of 1 μM (+)-butaclamol. The test results are expressed as IC50.

[1] = test system: DA receptors in subcortical mesolimbic structures (apomorphine hyperactivity); assay: Reduction of apomorphine-induced hyperactivity in the rat; type: in vivo, Male Sprague-Dawley rats; conditions: i.p.; 60 min prior to apomorphine hydrochloride 1 mg/kg s.c.; 60 min observation
Excerpt: There are presently several techniques available to study DA receptor blockage in the brain in vivo. One method is based on the ability of antipsychotic drugs to block the behavioral effects induced by the DA agonist apomorphine in the rat. Several studies indicate an excellent correlation between the in vivo DA receptor blockage as measured in the apomorphine test and therapeutic efficacy of different antipsychotic drugs. Apomorphine produces in rats and other species a characteristic syndrome consisting of repetitive movements (stereotypies) and hyperactivity which appear to be due to activation of postsynaptic DA receptors in the brain (J. Pharm. Pharmacol. 19, 627, 1967; J. Neurol. transm. 40, 97-113, 1977). The stereotypies (chewing, licking, biting) appear mainly to be induced via activation of DA receptors linked to the nigro neostriatal DA system (J. Psychiat. Res., 11, 1, 1974) whereas the increased locomotion (hyperactivity) mainly appears to be due to activation of DA receptors in subcortical mesolimbic structures (nucleus olfactorium, nucleus accumbens) i.e. the mesolimbic DA system. (J. Pharm. Pharmacol. 25, 1003, 1973). […]
(§1) In the second system the number of animals displaying hyperactivity caused by apomorphine were scored. […] The ED50 were calculated from log dose-response curves by the method of least squares from 4-6 dose levels with 6-8 animals per dose level.

[2] = test system: DA receptors linked to the nigro neostriatal DA system (apomorphine stereotypies); assay: Reduction of apomorphine-induced stereotypies in the rat; type: in vivo, Male Sprague-Dawley rats; conditions: i.p.; 60 min prior to apomorphine hydrochloride 1 mg/kg s.c.; 60 min observation
Excerpt: There are presently several techniques available to study DA receptor blockage in the brain in vivo. One method is based on the ability of antipsychotic drugs to block the behavioral effects induced by the DA agonist apomorphine in the rat. Several studies indicate an excellent correlation between the in vivo DA receptor blockage as measured in the apomorphine test and therapeutic efficacy of different antipsychotic drugs. Apomorphine produces in rats and other species a characteristic syndrome consisting of repetitive movements (stereotypies) and hyperactivity which appear to be due to activation of postsynaptic DA receptors in the brain (J. Pharm. Pharmacol. 19, 627, 1967; J. Neurol. transm. 40, 97-113, 1977). […]
Directly after injection, the animals were placed in the cages, one in each cage. […] The strength of the stereotype was scored on a 0-3 scale as follows:
as §1

IC50 (dopamine receptors) [nM]	SMILES	further results
2.4	CCCc1cc(OC)c(OC)c(C(=O)NC[C@@H]2CCCN2CC)c1O	
1.4	CCN1CCC[C@H]1CNC(=O)c1c(O)c(Br)cc(OC)c1OC	
8.8	CCN1CCC[C@H]1CNC(=O)c1c(O)ccc(OC)c1OC	
2.3	C=CCN1CCC[C@H]1CNC(=O)c1c(O)c(Br)cc(OC)c1OC	
1.3	COc1cc(Br)c(O)c(C(=O)NC[C@H]2CCCN2Cc2ccc(F)cc2)c1OC	

The remaining lines, values behind:

SMILES	IC50 (dopamine receptors) [nM]	further results
CCN1CCCC1CNC(=O)c1c(O)c(Cl)cc(Cl)c1OC (centres unmarked)		antagonism/inhibition of the apomorphine syndrome in the rat (apomorphine syndrome): potent inhibitors
CCc1cc(OC)c(OC)c(C(=O)NC[C@@H]2CCCN2CC)c1O	1.3	
CCN1CCC[C@H]1CNC(=O)c1c(O)c(Cl)cc(OC)c1OC	0.3	
CCN1CCC[C@H]1CNC(=O)c1c(O)c(Cl)cc(Cl)c1OC		Reduction of hyperactivity ED50 [1]: 0.11 µmol/kg; Reduction of stereotypies ED50 [2]: 2.4 µmol/kg
CCN1CCC[C@H]1CNC(=O)c1c(OC)ccc(Br)c1OC [Remoxipride]		antagonism/inhibition of the apomorphine syndrome in the rat (apomorphine syndrome): potent antagonist
